In series [1] the test system is tau phosphorylation and aggregation. The series is described as follows: Treatment of tgTau58/2 mice, tau phosphorylation and sarkosyl-insoluble tau in brain. In kind it is in vivo. To be noted: tau58/2 mice. An excerpt:
TgTau58/2 mice[44] that express the human 0N4R tau isoform with the P301Smutation under control of the mouse Thy1.2 promoter were a kind gift from Novartis (Boston, USA). Experimental animals were two months old, male, and heterozygous for the transgene. Wildtype littermates on C57BL/6J background served as control. The mice were maintained in pathogen-free conditions in the Animal Facility at the University of Düsseldorf, Germany, fed ad libitum with standard laboratory chow and water in ventilated cages under a 12h light/dark cycle. All experiments were in conformity with the Animal Protection Law approved by local authorities (LANUV NRW, Recklinghausen, Germany).
TgTau58/2 mice[44] were a kind gift from Novartis (Boston, USA). Two months-old males, heterozygous for the tau-P301S transgene (n = 12 per group), were either treated with 10% DMSO or 5 mg/kg body weight compound PAV-617 for four weeks administering 100 μL volumes intraperitoneally three times a week, after which animals were perfused with PBS and terminated. The brains were extracted cut into two-halves and flash frozen in liquid N2. One brain halve was homogenized in cold extraction buffer (10 mM Tris pH7.4, 1mM EGTA, 0.8M NaCl, 10% sucrose, 1x Protease inhibitor cocktail, 1x phosphatase inhibitor cocktail 2) to 10%. For screening 1% NP40, 0.1mg/mL DNAseI and 5 mM MgSO4 were added to the homogenates and after 30 min incubation on ice the protein concentration was determined using the DC Protein Assay Kit (Bio-Rad). Equal amounts of protein were then either directly used for detection of tau in the whole homogenate by immunoblot or sarkosyl insoluble tau was precipitated following a protocol of.[93] 750 μg lysate were centrifuged at 6,000g for 20 min at 4°C. Then the supernatant was carefully taken and sarkosyl was added to 1% end concentration. After an incubation for 1h at RT the samples were spun down at 100,000g for 1h at 4°C. The supernatants were removed and the pellets carefully washed with 200 μL extraction buffer without sucrose. […]

For another series, the system named is Akt. The series is described as follows: Akt phosphorylation (Ser473) in SH-SY5Y-tau-P301S cells, immunoblot. In kind it is cell-based, human. Conditions: dose-dependent and MIF-dependent. As for the experimental part:
After the protein concentration of cell lysates and homogenates had been determined using the DC Protein Assay Kit (Bio-Rad), 20 μg of each sample were dissolved in NuPAGE LDS Sample buffer (including 2% β-mercaptoethanol), boiled at 100°C for 5 min and then separated on NuPAGE Novex 4–12% Bis-Tris midi gels (Invitrogen) using NuPAGE MES SDS Running buffer (Invitrogen). Proteins were then transferred to a 0.2 μm nitrocellulose membrane (Amersham) in 24 mM Tris/192 mM glycine/20% MeOH at 400 mA for 2h using a tank blot system (Bio-Rad). In order to detect any blotting artifacts, the proteins on the membranes were visualized with Ponceau S (Sigma). The membranes were destained with PBS and then blocked with PBS/5% nonfat milk (Oxoid) for 1h at RT. Incubations with primary antibodies (diluted 1:1,000) in PBS-T were carried out overnight at 4°C. Then the membranes were washed three times with PBS-T for 10 min and afterward incubated with fluorescent secondary antibodies (IR Dye 680 or 800: Li-COR Biosciences.) diluted 1:20,000 in PBS-T for 1h at RT. Following three washing steps with PBS-T for 10 min each, the membranes were scanned using an LI-COR Odyssey CLX. Signal intensities were calculated using the Image Studio Version 2.1 software (LI-COR Biosciences). Blots were reused for staining with additional primary antibodies following the same procedure.

In another series the test system is wt-MIF and MIF-C80W. The series is described as follows: SEC-HPLC-MALS of MIF with or without compound. Details: species or system human. To be noted: 100 μM MIF, 100 μM PAV-174. On the procedure: The samples for SEC-HPLC-MALS were 100 μM of MIF (WT or mutant C80W) in 20 mM phosphate buffer, with or without compound PAV-174 (100 μM).
The HPLC-MALS was performed at 0.5 mL/min and 25°C with an Agilent 1200 series HPLC system and a size exclusion column TSKgel G2000SWXL from Tosoh bioscience. The detection was performed recording the UV absorbance at 280 nm with the HPLC detector and the light scattering with a miniDawn Treos spectrometer from Wyatt. The molecular weight of the detected species is calculated using the extinction coefficients at 280 nm (12950 M^−1 cm^−1 for WT and 18450 M^−1 cm^−1 for C80W), absorbance at 280 nm and the Rayleigh ratio using the built-in function in Astra software.

Series [2] is described as follows: MTT assay, SH-SY5Y-tau-P301S cells. In kind it is cell-based. To be noted: human, Figure S1B. As for the experimental part:
For viability analysis 4x10^4 Vero or 8x10^4 SH-SY5Y-tau-P301S cells were plated in a 96-well plate and incubated at 37°C overnight. Then the compounds diluted in DMSO were added to the cells. The final concentration of DMSO was 1%. The cells were then incubated for 24h (Vero) or 48h (SH-SY5Y). Afterward 20 μL of a Thiazolyl Blue Tetrazolium Bromide (MTT, Sigma) solution (5 mg/mL in PBS) was added to the cells and incubated for 4h allowing viable cells to reduce the yellow MTT into blue formazan metabolites. Following aspiration of the medium, the formazan was resuspended in 200 μL isopropanol/40 mM HCl and incubated for 30 min at RT. The diluted formazan was spectrometrically analyzed using a Tecan Safire Spectrometer at 560 nm and background at 670 nm was subtracted.

A further series deals with MIF-wt and MIF-C80W. The series is described as follows: Stabilization of transiently expressed MIF in HEK-MIF-knockdown cells. In kind it is cell-based, human. Conditions: HEK-MIF-KO cells transfected with rescue constructs. On the procedure: Transient transfection of HEK-MIF-knockdown cells with MIF-rescue constructs were carried out with lipofectamine 3000 according to the manufacturer’s recommendations. Briefly, 5x10^5 HEK-MIF-ko cells were seeded into 12-well plates. At the next day the cells were transfected with 2.5 μg of vector DNA. Cells were washed twice with PBS and lysed in PBS/1% NP40 48h after transfection.

As for `[I-].c1cc2nc3ccc(N4CCCC4)cc3[s+]c2cc1N1CCCC1` [PAV-617, 3,7-Di(pyrrolidine-1-yl)phenothiazine-5-ium iodide], in series [1] (5 mg/kg), the “phosphorylated tau (AT8) in brain homogenates” value is reported as “reduced” and the “phosphorylated tau (PHF-1) in the sarkosyl-insoluble fraction” value was “Significantly less”. For the same compound, the “HT7-normalized phosphorylated tau (PHF-1) in brain homogenates” value in series [1] (5 mg/kg i.p. three times a week for four weeks) is “reduced”.
With `CCc1cc(N2CCCC2)cc2[s+]c3cc(N4CCCC4)cc(C)c3nc12.[I-]` [PAV-174, 3,7-Di(pyrrolidine-1-yl) 1-ethyl-9-methyl-phenothiazin-5-ium iodide], the “phosphorylation of Akt at Ser473” value in the series with Akt is listed as “increased”. In addition, the “effect on monomer-trimer equilibrium / oligomerization of MIF” value in the series on wt-MIF and MIF-C80W is recorded as “does not perturb the monomer-trimer equilibrium”. Further, in series [2], the midpoint of cytotoxicity, the CC50 at 48 h, lay at 1480 nM. Also, the “stabilization of MIF-wt and MIF-C80W” value with MIF-wt and MIF-C80W is on record as “significant stabilization”.

Source of the values: article PMC12866179, “Oxidized MIF is an Alzheimer’s disease drug target relaying external risk factors to tau pathology” (Cell Reports Medicine, 2025).
